According to patent US8044022B2, “Hyaluronic acid binding peptides enhance host defense against pathogenic bacteria” (priority 2005, dated 2011):
Non-standard residues stand in square brackets, D forms with d. Residues, ends and D or L forms follow the SMILES beside them. No end group written: not given here.

Tests used:
[1] = tested on: human red blood cells; assay: Hemolytic activity, hemoglobin release from red blood cells (12 hour protocol)
Description: Determination of hemolytic activity is measured through the release of hemoglobin from human red blood cells as measured spectrophotometrically.
Briefly, a dilution series of the peptide was prepared in two-fold dilutions from 512 to 1 μg/mL. Triplicate determinations of each peptide concentration were added to 1% human red blood cells and incubated for 12 hours at 37° C. The negative control for hemolysis consisted of 1% red blood cells with no peptide added. The positive control for hemolysis was 1% red blood cells in 0.15M NH4Cl. Hemoglobin release was measured at an absorbance of 562 nm.
Percent hemolysis is calculated as the ratio of the optical density (OD) of the peptide relative to the OD of the positive control for hemolysis.

[2] = Surface plasmon resonance (Biacore T-100) binding of peptides to immobilized biotin-labeled hyaluronic acid; design: species or system rooster; settings: SPR, biotin-HA immobilized on streptavidin chip
Description: Surface plasmon resonance spectroscopy (SPR) studies were performed on a Biacore T-100 to quantitate the binding of peptides to hyaluronic acid (HA). Biotin-labeled hyaluronic acid (Sigma B1557, hyaluron sodium salt from rooster comb with >97% purity, average approximately 850 kDd, 98% labeled) was immobilized on one of the four flow cells of a streptavidin-coated series S sensor chip SA. […] Peptides were then injected across the surface and the degree of binding interaction is measured in response units (RU).
The average net binding for HABP35 to HA was 399±77 RU or significant binding. The other HA binding peptides also had positive RU values.

[3] = tested on: S. aureus strain PS80; assay: Mouse model of S. aureus surgical wound infection; type: in vivo, C57BL6 mice; settings: 100 μg into wound at time of challenge with 10^2 CFU; 3 days later
Description: Bacterial strains. S. aureus strain PS80 (serotype 8) was obtained from the American Type Culture collection (#27700) and is a potent inducer of intraabdominal abscess formation. S. aureus COL is a methicillin resistant strain that produces a serotype 5 capsule. Staphylococci were cultivated for 24 h at 37° C. on Columbia agar (Difco Laboratories, Detroit, Mich.) supplemented with 2% NaCl.
Mouse model of S. aureus wound infection. Mice (C57BL6, male, 6-8 wk old) were obtained from Jackson Laboratories (Bar Harbor, Me.). Groups of mice (N=4/group/experiment) were anesthetized with 100 mg/kg ketamine and 10 mg/kg xylazine, their right thighs were shaved, and the surgical area was disinfected with iodine and 70% ethanol. An incision was made in the skin to expose the thigh muscle, and a 1-cm incision was made with a scalpel into the thigh muscle to the depth of the bone. The muscle was then closed with one 4-0 silk suture, and 10 μl of a S. aureus suspension ranging in dose from 10^2 to 10^4 CFU was introduced into the incision under the suture. The skin was closed with four additional Prolene sutures. The mice were euthanized at 3 days post-surgery. The wounded muscle tissue was excised, weighed (˜0.08 g), and homogenized in 1 ml of tryptic soy broth. Serial dilutions of the homogenates were plated in duplicate and results were expressed as CFU/g tissue. Peptides were administered to animals in two ways. For most experiments, HABPs were solubilized in PBS and administered with a pipet into the wound in a 10 μl volume following challenge with bacteria. A 100 μg dose was used for most experiments. For therapeutic studies, peptide was administered via a 1 ml tuberculin syringe fitted with a 25 gauge needle in a 0.25 ml volume injected into the thigh muscle containing the wound distal from the incision site.
Gross pathology and histologic analysis of host response. […] Histological examination of these wounds confirmed these findings. Muscle tissue was harvested from mice at designated intervals post-surgery, fixed in 10% buffered formalin, and mounted in paraffin; 5 to 6-μm sections were cut and stained with hematoxylin and eosin for microscopic examination. […] The cellular infiltrate was primarily comprised of PMNs and fibrin.
Statistical analyses. All animal experiments were performed at least two times and the data pooled. Comparison of S. aureus CFU/g tissue was made by the Welch modification of the unpaired Student t test (InStat, GraphPad Software, San Diego, Calif.).

[4] = tested on: S. equi; assay: Bacterial translocation through polarized keratinocyte cultures (Transwell); type: cell-based, Streptococcus equi; settings: 100 μg/ml; vs PBS or SCRM
Description: (§1) Cell cultures: For the preparation of in vitro keratinocyte cultures, human primary OKP7 cells were derived from the oropharynx. Keratinocytes were seeded at 5×10^5 cells per well onto polycarbonate Transwell membrane supports (12 well plates, 3.0 μm pore size; Costar) or tissue culture treated plastic ware and cultured for 5-10 days at 37° C. with 5% humidified CO2 in cSFM medium with daily medium changes. Once confluent, the calcium concentration of the cSFM was increased to 1.2 mM and cells were cultured for 2 more days, before the integrity of the monolayer was assessed by measuring permeability to sodium fluorescein, and in some experiments, by measuring transepithelial electrical resistance.
(§2) Infection procedures: Keratinocyte layer cultures in Transwell inserts were inoculated in the upper chamber with GAS, S. equi, S. uberis, and P. multocida at a multiplicity of infection (MOI) of 1 bacterium per keratinocyte in the presence or absence of HABP01 or SCRM. Infected cultures were incubated at 37° C. with 5% CO2 for the desired time. In translocation experiments, Transwell inserts containing the keratinocytes were moved to new wells containing fresh medium every 2 hours to prevent overgrowth of bacteria that had translocated through the keratinocytes layer to the lower chamber. Bacterial translocation was quantified by culturing medium from the lower chamber at 2-hour intervals. […]

[5] = tested on: GAS internalization by keratinocytes; assay: Bacterial internalization by keratinocyte monolayers; type: cell-based, Group A Streptococcus / human keratinocytes; settings: 100 μg/ml, 4 hours
Description: Effect of HABP on bacterial internalization by keratinocytes. Encapsulated GAS are poorly internalized by keratinocytes. Yet in the presence of HABPs, intracellular encapsulated GAS are observed by microscopy. To quantify this internalization, keratinocyte monolayers were infected with HA-encapsulated bacteria in the presence of 100 μg/ml of either HABP01 or SCRM for 4 hours. Penicillin and gentamicin were added at 3 hours to kill extracellular bacteria and cells were harvested. Bacteria treated with HABP01 were internalized approximately 40-fold more efficiently than SCRM-treated or untreated samples, and at similar levels to those obtained with acapsular GAS. Internalization of acapsular GAS was unaffected by either peptide.

[6] = tested on: Staphylococcus aureus; assay: Bacterial translocation through polarized keratinocyte cultures (Transwell); type: cell-based; settings: 100 μg/ml; vs PBS or SCRM
[7] = Fluorometry binding of FITC-conjugated peptide to purified HA in well; design: species or system rooster
Description: Lyophilized synthetic peptides were resuspended in PBS pH7.4 prior to use in either in vitro or in vivo experiments. Fluorescein conjugation of HABP01 and SCRM was performed using 5,6 carboxyfluorescein, succinimidyl ester (5,6 FAM) (Molecular Probes, Portland, Oreg.) as per manufacturer's instructions and separated on a Sephadex G-25 column (Amersham, Piscataway, N.J.). Purified, high molecular weight rooster comb HA (Sigma-Aldrich, St Louis, Mo.) was used as a positive control for BP binding.
(§3) Binding of HABP to HA and HA-encapsulated bacteria: To assess whether HABP are able to associate specifically with the GAS capsule, bacteria were cultured to mid-log phase, for maximal HA capsule expression, and incubated with either 10 μg/ml of FITC-conjugated HABP01 or SCRM, with purified HA at 1 mg/ml, as a positive control, or an isogenic mutant strain of GAS deficient in HA capsule, as a negative control. A GAS-specific antibody was used to control for the number of bacteria per well.

[8] = tested on: Acapsular GAS; assay: Fluorometry binding of FITC-conjugated peptide to capsule-deficient GAS; design: species or system Group A Streptococcus
Description: (§4) Bacterial strains: GAS strain 950771 is a moderately encapsulated M3 clinical isolate from a child with post-varicella necrotizing fasciitis and sepsis, and an isogenic capsule deficient mutant, 188, derived from 950771. GAS were grown in Todd-Hewitt broth (Difco) to mid-exponential phase OD650 of 0.15 at 37° C. for all experiments. Commercially available trypticase-soy agar medium supplemented with 5% vol/vol sheep blood (BAP)(PML Microbiologicals, British Columbia, Canada) were used for all plate cultures. S. equi s(ATCC 53185) and P. multocida (ATCC 11039) were purchased from ATCC and cultured as recommended. Briefly, S. equi was cultured in Todd-Hewitt broth and S. uberis and P. multocida were cultured in Brain heart infusion (Difco) to OD 650 of 0.15 at 37° C. Quantitative cultures were performed in parallel with each experiment to verify the multiplicity of infection (MOI) of the inoculum.
as §3

[9] = tested on: GAS; assay: Opsonophagocytic assay with human neutrophils; type: cell-based, Group A Streptococcus; settings: 50 μg/ml, 2 hours incubation with human neutrophils, 10% absorbed human serum
Description: Encapsulated GAS are resistant to killing by neutrophils in opsonophagocytic assays in the absence of antibodies that bind the bacterial surface. HABPs binding to the bacterial surface may facilitate neutrophil cytotoxicity. Opsonophagocytic assays were performed wherein GAS were incubated with 50 μg/ml of SCRM, HABP01 or HABP35 and mixed with human neutrophils in medium containing 10% absorbed human serum. Aliquots (25 μl) for quantitative culture were withdrawn immediately after mixing neutrophil with GAS and after 2 hr incubation at 37° C. The log increase or decrease in CFU's was calculated. After 2 hours of incubation, there was about a 1.5 log increase in CFU's for GAS treated with PBS or SCRM.

[10] = tested on: GAS; assay: Bacterial translocation through polarized keratinocyte cultures (Transwell); type: cell-based, Group A Streptococcus; settings: vs PBS or SCRM
Description: as §1
Infection procedures: Keratinocyte layer cultures in Transwell inserts were inoculated in the upper chamber with GAS, S. equi, S. uberis, and P. multocida at a multiplicity of infection (MOI) of 1 bacterium per keratinocyte in the presence or absence of HABP01 or SCRM. Infected cultures were incubated at 37° C. with 5% CO2 for the desired time. In translocation experiments, Transwell inserts containing the keratinocytes were moved to new wells containing fresh medium every 2 hours to prevent overgrowth of bacteria that had translocated through the keratinocytes layer to the lower chamber. Bacterial translocation was quantified by culturing medium from the lower chamber at 2-hour intervals.
Bacterial translocation studies were performed to assess the impact of HABP01 on bacterial paracellular translocation through polarized keratinocyte cultures.
Incubation of GAS in the presence of HABP33, HABP35 and HABP42, also delayed GAS translocation. At two hours after the addition of GAS to the keratinocytes, approximately 530 CFU of GAS were detected in the lower level in cultures treated with PBS or SCRM peptide.

[11] = tested on: Wild Type GAS (HA encapsulated); assay: Fluorometry binding of FITC-conjugated peptide to encapsulated GAS; design: species or system Group A Streptococcus
Description: as §4, §3

[12] = tested on: P. multocida; assay: Bacterial translocation through polarized keratinocyte cultures (Transwell); type: cell-based, Pasteurella multocida; settings: 100 μg/ml; vs PBS or SCRM
Description: as §1, §2

[13] = fluorometry, HABP35 also confocal microscopy, data not shown

CC[C@H](C)[C@H](NC(=O)[C@H](CCCCN)NC(=O)[C@H](CCC(N)=O)NC(=O)[C@H](CCCCN)NC(=O)[C@@H](N)CC(C)C)C(=O)N[C@@H](CCCCN)C(=O)N[C@@H](Cc1c[nH]cn1)C(=O)N[C@H](C(=O)N[C@H](C(=O)N[C@@H](CCCCN)C(=O)N[C@@H](CC(C)C)C(=O)N[C@@H](CCCCN)C(=O)N[C@H](C(=O)N[C@H](C(=O)N[C@H](C(=O)N[C@@H](CCCCN)C(=O)N[C@@H](CC(C)C)C(=O)N[C@@H](CCCNC(=N)N)C(=O)N[C@@H](CO)C(=O)N[C@@H](CCC(N)=O)C(=O)N[C@@H](CC(C)C)C(=O)N[C@H](C(=O)N[C@@H](CCCCN)C(=O)N[C@@H](CCCNC(=N)N)C(=O)N[C@@H](CCCCN)C(=O)N[C@@H](CCC(N)=O)C(=O)N[C@@H](CC(N)=O)C(N)=O)C(C)C)C(C)C)C(C)C)C(C)C)C(C)C)C(C)C [HABP35] (H-LKQKIKHVVKLKVVVKLRSQLVKRKQN-NH2)
hemolytic activity ([1]; highest concentration tested, 512 μg/mL, 1% human red blood cells, 12 hours, 37° C.): minor hemolytic activity

CC[C@H](C)[C@H](NC(=O)CN)C(=O)NCC(=O)N[C@@H](C)C(=O)N[C@H](C(=O)N[C@@H](CC(C)C)C(=O)N[C@@H](CCCCN)C(=O)N[C@H](C(=O)N[C@@H](CC(C)C)C(=O)N[C@H](C(=O)N[C@H](C(=O)NCC(=O)N[C@@H](CC(C)C)C(=O)N1CCC[C@H]1C(=O)N[C@@H](C)C(=O)N[C@@H](CC(C)C)C(=O)N[C@H](C(=O)N[C@@H](CO)C(=O)N[C@@H](Cc1c[nH]c2ccccc12)C(=O)N[C@H](C(=O)N[C@@H](CCCCN)C(=O)N[C@@H](CCCNC(=N)N)C(=O)N[C@@H](CCCCN)C(=O)N[C@@H](CCCNC(=N)N)C(=O)N[C@@H](CCC(N)=O)C(=O)N[C@@H](CCC(N)=O)C(N)=O)[C@@H](C)CC)[C@@H](C)CC)[C@@H](C)O)[C@@H](C)O)C(C)C)C(C)C [Melittin]
concentration giving levels of hemolysis comparable to HABP35 at 512 μg/mL ([1]; 1% human red blood cells, 12 hours): less than 1 μg/mL
potency as a hemolytic agent relative to HABP35 ([1]; comparison with HABP35): more than 500 times
average net binding to HA [2]: −503±5 RU

STMMSRSHKTRSHHV (all d isomers) ([dS][dT][dM][dM][dS][dR][dS][dH][dK][dT][dR][dS][dH][dH][dV]-NH2) [HABP42]
bacterial burden at the wound site compared with PBS [3]: decrease in bacterial burden

STMMSRSHKTRSHHV [HABP01]
reduction in translocation of S. equi [4]: 98%
internalization of HA-encapsulated bacteria by keratinocytes relative to SCRM-treated or untreated samples [5]: approximately 40 fold
reduction in translocation of Staphylococcus aureus [6]: 73%
binding to purified HA (in words) ([7]; fluorometry): bound specifically
Relative binding ([7]; substrate in well: HA (1 mg/ml), 10 μg/ml FITC-conjugated peptide): 9640 ± 360 relative fluorescent units
binding to unencapsulated GAS (in words) [8, 13]: not to unencapsulated GAS
Relative binding ([8]; substrate in well: Acapsular GAS, 10 μg/ml FITC-conjugated peptide): 1940 ± 70 relative fluorescent units
log increase in CFU's [9]: over 1 log
reduction in the translocation of GAS across an intact keratinocyte culture ([10]; 100 μg/ml, treatment of keratinocytes or bacteria): 75-85%
binding to encapsulated GAS (in words) [11, 13]: bound specifically
Relative binding ([11]; substrate in well: Wild Type GAS, 10 μg/ml FITC-conjugated peptide): 11840 ± 230 relative fluorescent units
reduction in translocation of P. multocida [12]: 98%

VSKLRSQLVKRKQN (VSKLRSQLVKRKQN-NH2) [HABP33]
decrease in the numbers of translocating GAS bacteria ([10]; two hours after addition of GAS): ~90%
